Columns and labels:
Type in all cases: functional, organism-based
Plasmodium falciparum [1] = assay: Antimalarial activity against multidrug-resistant Plasmodium falciparum TM91C235 assessed as inhibition of [3H]hypoxanthine incorporation after 96 hrs by microtiter plate scintillation counting
Plasmodium falciparum [2] = assay: Antimalarial activity against chloroquine-sensitive Plasmodium falciparum D6 assessed as inhibition of [3H]hypoxanthine incorporation after 96 hrs by microtiter plate scintillation counting
Plasmodium falciparum [3] = assay: Antimalarial activity against chloroquine-,pyrimethamine-resistant Plasmodium falciparum W2 assessed as inhibition of [3H]hypoxanthine incorporation after 96 hrs by microtiter plate scintillation counting

SMILES	IC50 (Plasmodium falciparum [1])	IC50 (Plasmodium falciparum [2])	IC50 (Plasmodium falciparum [3])
CC[C@H]1OC(=O)[C@H](C)[C@@H](O[C@H]2C[C@@](C)(OC)[C@@H](O)[C@H](C)O2)[C@H](C)[C@@H](O[C@@H]2O[C@H](C)C[C@H](N(C)C)[C@H]2O)[C@](C)(O)C[C@@H](C)CN(CCCNC(=S)Nc2cc(Cl)cc(Cl)c2)[C@H](C)[C@@H](O)[C@]1(C)O	0.0554 µM	0.116 µM	0.0425 µM
CC[C@H]1OC(=O)[C@H](C)[C@@H](O[C@H]2C[C@@](C)(OC)[C@@H](O)[C@H](C)O2)[C@H](C)[C@@H](O[C@@H]2O[C@H](C)C[C@H](N(C)C)[C@H]2O)[C@](C)(O)C[C@@H](C)CN(CCCNC(=S)Nc2ccc(F)cc2)[C@H](C)[C@@H](O)[C@]1(C)O	0.139 µM	0.32 µM	0.0728 µM
CC[C@H]1OC(=O)[C@H](C)[C@@H](O[C@H]2C[C@@](C)(OC)[C@@H](O)[C@H](C)O2)[C@H](C)[C@@H](O[C@@H]2O[C@H](C)C[C@H](N(C)C)[C@H]2O)[C@](C)(O)C[C@@H](C)CN(CCCNC(=S)NC(c2ccccc2)c2ccccc2)[C@H](C)[C@@H](O)[C@]1(C)O	0.055 µM	0.218 µM	0.0377 µM
CC[C@H]1OC(=O)[C@H](C)[C@@H](O[C@H]2C[C@@](C)(OC)[C@@H](O)[C@H](C)O2)[C@H](C)[C@@H](O[C@@H]2O[C@H](C)C[C@H](N(C)C)[C@H]2O)[C@](C)(O)C[C@@H](C)CN(CCCNC(=S)NCCCN2CCOCC2)[C@H](C)[C@@H](O)[C@]1(C)O	5.09 µM	7.01 µM	1.27 µM
CC[C@H]1OC(=O)[C@H](C)[C@@H](O[C@H]2C[C@@](C)(OC)[C@@H](O)[C@H](C)O2)[C@H](C)[C@@H](O[C@@H]2O[C@H](C)C[C@H](N(C)C)[C@H]2O)[C@](C)(O)C[C@@H](C)CN(CCCNC(=O)Nc2ccc(C)cc2C)[C@H](C)[C@@H](O)[C@]1(C)O	0.232 µM	0.47 µM	0.179 µM
CC[C@H]1OC(=O)[C@H](C)[C@@H](O[C@H]2C[C@@](C)(OC)[C@@H](O)[C@H](C)O2)[C@H](C)[C@@H](O[C@@H]2O[C@H](C)C[C@H](N(C)C)[C@H]2O)[C@](C)(O)C[C@@H](C)CN(CCCNC(=O)NCC2CCCCC2)[C@H](C)[C@@H](O)[C@]1(C)O	0.142 µM	0.61 µM	0.113 µM
CC[C@H]1OC(=O)[C@H](C)[C@@H](O[C@H]2C[C@@](C)(OC)[C@@H](O)[C@H](C)O2)[C@H](C)[C@@H](O[C@@H]2O[C@H](C)C[C@H](N(C)C)[C@H]2O)[C@](C)(O)C[C@@H](C)CN(C)[C@H](C)[C@@H](O)[C@]1(C)O [AZITHROMYCIN]	2.06 µM	1.02 µM	2.24 µM
CC[C@H]1OC(=O)[C@H](C)[C@@H](O[C@H]2C[C@@](C)(OC)[C@@H](O)[C@H](C)O2)[C@H](C)[C@@H](O[C@@H]2O[C@H](C)C[C@H](N(C)C)[C@H]2O)[C@](C)(O)C[C@@H](C)CN(CCCNC(=S)Nc2ccc(-n3cccn3)cc2)[C@H](C)[C@@H](O)[C@]1(C)O	0.101 µM	0.16 µM	0.109 µM
CC[C@H]1OC(=O)[C@H](C)[C@@H](O[C@H]2C[C@@](C)(OC)[C@@H](O)[C@H](C)O2)[C@H](C)[C@@H](O[C@@H]2O[C@H](C)C[C@H](N(C)C)[C@H]2O)[C@](C)(O)C[C@@H](C)CN(CCCNC(=O)Nc2c(C)noc2C)[C@H](C)[C@@H](O)[C@]1(C)O	12.8 µM	12.8 µM	12.8 µM
CC[C@H]1OC(=O)[C@H](C)[C@@H](O[C@H]2C[C@@](C)(OC)[C@@H](O)[C@H](C)O2)[C@H](C)[C@@H](O[C@@H]2O[C@H](C)C[C@H](N(C)C)[C@H]2O)[C@](C)(O)C[C@@H](C)CN(CCCNC(=S)N[C@H]2CCCC[C@H]2OCc2ccccc2)[C@H](C)[C@@H](O)[C@]1(C)O	0.127 µM	0.645 µM	0.274 µM
CC[C@H]1OC(=O)[C@H](C)[C@@H](O[C@H]2C[C@@](C)(OC)[C@@H](O)[C@H](C)O2)[C@H](C)[C@@H](O[C@@H]2O[C@H](C)C[C@H](N(C)C)[C@H]2O)[C@](C)(O)C[C@@H](C)CN(CCCNC(=S)Nc2ccc(C)cc2)[C@H](C)[C@@H](O)[C@]1(C)O	0.164 µM	0.33 µM	0.0713 µM
CC[C@H]1OC(=O)[C@H](C)[C@@H](O[C@H]2C[C@@](C)(OC)[C@@H](O)[C@H](C)O2)[C@H](C)[C@@H](O[C@@H]2O[C@H](C)C[C@H](N(C)C)[C@H]2O)[C@](C)(O)C[C@@H](C)CN(CCCNC(=O)Nc2cccc(Cl)c2)[C@H](C)[C@@H](O)[C@]1(C)O	0.118 µM	0.455 µM	0.187 µM
CC[C@H]1OC(=O)[C@H](C)[C@@H](O[C@H]2C[C@@](C)(OC)[C@@H](O)[C@H](C)O2)[C@H](C)[C@@H](O[C@@H]2O[C@H](C)C[C@H](N(C)C)[C@H]2O)[C@](C)(O)C[C@@H](C)CN(CCCNC(=S)NCC(C)C)[C@H](C)[C@@H](O)[C@]1(C)O	0.435 µM	0.689 µM	0.495 µM
CC[C@H]1OC(=O)[C@H](C)[C@@H](O[C@H]2C[C@@](C)(OC)[C@@H](O)[C@H](C)O2)[C@H](C)[C@@H](O[C@@H]2O[C@H](C)C[C@H](N(C)C)[C@H]2O)[C@](C)(O)C[C@@H](C)CN(CCCNC(=O)Nc2ccc(C)cc2)[C@H](C)[C@@H](O)[C@]1(C)O	0.139 µM	0.33 µM	0.0887 µM
CCCCNC(=S)NCCCN1C[C@H](C)C[C@@](C)(O)[C@H](O[C@@H]2O[C@H](C)C[C@H](N(C)C)[C@H]2O)[C@@H](C)[C@H](O[C@H]2C[C@@](C)(OC)[C@@H](O)[C@H](C)O2)[C@@H](C)C(=O)O[C@H](CC)[C@@](C)(O)[C@H](O)[C@H]1C	0.382 µM	0.655 µM	0.188 µM
CC[C@H]1OC(=O)[C@H](C)[C@@H](O[C@H]2C[C@@](C)(OC)[C@@H](O)[C@H](C)O2)[C@H](C)[C@@H](O[C@@H]2O[C@H](C)C[C@H](N(C)C)[C@H]2O)[C@](C)(O)C[C@@H](C)CN(CCCNC(=S)Nc2ccc(/N=N/c3ccccc3)cc2)[C@H](C)[C@@H](O)[C@]1(C)O	0.0963 µM	0.107 µM	0.0479 µM
CC[C@H]1OC(=O)[C@H](C)[C@@H](O[C@H]2C[C@@](C)(OC)[C@@H](O)[C@H](C)O2)[C@H](C)[C@@H](O[C@@H]2O[C@H](C)C[C@H](N(C)C)[C@H]2O)[C@](C)(O)C[C@@H](C)CN(CCCNC(=S)Nc2cccnc2)[C@H](C)[C@@H](O)[C@]1(C)O	0.801 µM	1.21 µM	1.2 µM
CC[C@H]1OC(=O)[C@H](C)[C@@H](O[C@H]2C[C@@](C)(OC)[C@@H](O)[C@H](C)O2)[C@H](C)[C@@H](O[C@@H]2O[C@H](C)C[C@H](N(C)C)[C@H]2O)[C@](C)(O)C[C@@H](C)CN(CCCNC(=O)Nc2cc(C)oc2C(F)(F)F)[C@H](C)[C@@H](O)[C@]1(C)O	0.32 µM	0.361 µM	0.309 µM
CC[C@H]1OC(=O)[C@H](C)[C@@H](O[C@H]2C[C@@](C)(OC)[C@@H](O)[C@H](C)O2)[C@H](C)[C@@H](O[C@@H]2O[C@H](C)C[C@H](N(C)C)[C@H]2O)[C@](C)(O)C[C@@H](C)CN(CCCNC(=O)Nc2ccc(Cl)cc2)[C@H](C)[C@@H](O)[C@]1(C)O	0.0904 µM	0.188 µM	0.0993 µM
CC[C@H]1OC(=O)[C@H](C)[C@@H](O[C@H]2C[C@@](C)(OC)[C@@H](O)[C@H](C)O2)[C@H](C)[C@@H](O[C@@H]2O[C@H](C)C[C@H](N(C)C)[C@H]2O)[C@](C)(O)C[C@@H](C)CN(CCCNC(=S)Nc2sc3c(c2C(=O)OC)CCCC3)[C@H](C)[C@@H](O)[C@]1(C)O	0.407 µM	0.825 µM	0.229 µM
CC[C@H]1OC(=O)[C@H](C)[C@@H](O[C@H]2C[C@@](C)(OC)[C@@H](O)[C@H](C)O2)[C@H](C)[C@@H](O[C@@H]2O[C@H](C)C[C@H](N(C)C)[C@H]2O)[C@](C)(O)C[C@@H](C)CN(CCCNC(=S)Nc2ccc(F)c(F)c2F)[C@H](C)[C@@H](O)[C@]1(C)O	0.0737 µM	0.449 µM	0.165 µM
CC[C@H]1OC(=O)[C@H](C)[C@@H](O[C@H]2C[C@@](C)(OC)[C@@H](O)[C@H](C)O2)[C@H](C)[C@@H](O[C@@H]2O[C@H](C)C[C@H](N(C)C)[C@H]2O)[C@](C)(O)C[C@@H](C)CN(CCCNC(=S)NC(=O)c2ccccc2)[C@H](C)[C@@H](O)[C@]1(C)O	0.288 µM	0.297 µM	0.107 µM
CC[C@H]1OC(=O)[C@H](C)[C@@H](O[C@H]2C[C@@](C)(OC)[C@@H](O)[C@H](C)O2)[C@H](C)[C@@H](O[C@@H]2O[C@H](C)C[C@H](N(C)C)[C@H]2O)[C@](C)(O)C[C@@H](C)CN(CCCNC(=S)Nc2ccc(Oc3ccccc3)nc2)[C@H](C)[C@@H](O)[C@]1(C)O	0.133 µM	0.215 µM	0.109 µM
CC[C@H]1OC(=O)[C@H](C)[C@@H](O[C@H]2C[C@@](C)(OC)[C@@H](O)[C@H](C)O2)[C@H](C)[C@@H](O[C@@H]2O[C@H](C)C[C@H](N(C)C)[C@H]2O)[C@](C)(O)C[C@@H](C)CN(CCCNC(=O)Nc2c(C)noc2-c2ccccc2)[C@H](C)[C@@H](O)[C@]1(C)O	0.492 µM	0.936 µM	0.734 µM
CC[C@H]1OC(=O)[C@H](C)[C@@H](O[C@H]2C[C@@](C)(OC)[C@@H](O)[C@H](C)O2)[C@H](C)[C@@H](O[C@@H]2O[C@H](C)C[C@H](N(C)C)[C@H]2O)[C@](C)(O)C[C@@H](C)CN(CCCNC(=S)NC2CC3C=CC2C3)[C@H](C)[C@@H](O)[C@]1(C)O (stereo partly drawn)	0.183 µM	0.302 µM	0.173 µM
CC[C@H]1OC(=O)[C@H](C)[C@@H](O[C@H]2C[C@@](C)(OC)[C@@H](O)[C@H](C)O2)[C@H](C)[C@@H](O[C@@H]2O[C@H](C)C[C@H](N(C)C)[C@H]2O)[C@](C)(O)C[C@@H](C)CN(CCCNC(=S)Nc2ccc(N(CC)CC)cc2)[C@H](C)[C@@H](O)[C@]1(C)O	0.298 µM	0.765 µM	0.684 µM

— ChEMBL document CHEMBL1681728, “An automated, polymer-assisted strategy for the preparation of urea and thiourea derivatives of 15-membered azalides as potential antimalarial chemotherapeutics” (Bioorg Med Chem, 2011)
